In US20250074891A1 (Anaxis Pharma Pty Ltd., priority 2021, published 2025):

How the values were obtained:
MLKL (full length) = MLKL (full length) (Homo sapiens (Human), UniProt Q8NB16); test: KINOMEscan binding assay, MLKL (full length); settings: Table 36
Description: Kinase assays. For most assays, kinase-tagged T7 phage strains were grown in parallel in 24-well blocks in an E. coli host derived from the BL21 strain. E. coli were grown to log-phase and infected with T7 phage from a frozen stock (multiplicity of infection=0.4) and incubated with shaking at 32° C. until lysis (90-150 minutes).
The Hill Slope was set to −1.

[1] = test system: U937 human histiocytic leukemia cell line; test: Cellular assay: inhibition of TSQ induced necroptosis (CellTitre-Glo); settings: Homo sapiens, U-937; U937 cells, TSQ cocktail, 48 hours, Table 38; read-out: Inhibition of TSQ-induced necroptosis (IC50 cell-based assay)
Method in brief: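 U937 cells (20,000/well) pre-dosed with compound (10-point, 1:3 from 36 μM, 0.3% DMSO), then TSQ (hTNF-Fc 100 ng/ml, Smac mimetic 500 nM, Q-VD-OPh 10 μM) for 48 h at 37 °C. Viability by CellTiter-Glo luminescence, normalised to DMSO (100%) and DMSO+TSQ (0%); IC50 from 4-parameter fit.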

U937 cells = test: Counter screen: cell viability without TSQ cocktail (off-target effect); set-up: species or system human; settings: Homo sapiens, U-937, Table 38, read-out: Off-target effect (IC50 cell-based assay)
Description: Counter screen: In parallel, all compounds were tested for their ability to affect cell viability. The same U937 cells were treated with compound in DMSO without the TSQ cocktail. This counter screen enabled evaluation of off-target effects. In this case, cell viability was measured by CelltiterGlo.

endogenous MLKL in U937 = endogenous MLKL in U937 (Homo sapiens (Human), UniProt Q8NB16); test: Degradation assay: degradation of endogenous MLKL in human cells (Western blot); settings: 24 h incubation, read-out: Degradation of endogenous MLKL in U937 (DC50 cell-based assay in μM)
Chain of endogenous MLKL in U937 (Q8NB16 whole entry): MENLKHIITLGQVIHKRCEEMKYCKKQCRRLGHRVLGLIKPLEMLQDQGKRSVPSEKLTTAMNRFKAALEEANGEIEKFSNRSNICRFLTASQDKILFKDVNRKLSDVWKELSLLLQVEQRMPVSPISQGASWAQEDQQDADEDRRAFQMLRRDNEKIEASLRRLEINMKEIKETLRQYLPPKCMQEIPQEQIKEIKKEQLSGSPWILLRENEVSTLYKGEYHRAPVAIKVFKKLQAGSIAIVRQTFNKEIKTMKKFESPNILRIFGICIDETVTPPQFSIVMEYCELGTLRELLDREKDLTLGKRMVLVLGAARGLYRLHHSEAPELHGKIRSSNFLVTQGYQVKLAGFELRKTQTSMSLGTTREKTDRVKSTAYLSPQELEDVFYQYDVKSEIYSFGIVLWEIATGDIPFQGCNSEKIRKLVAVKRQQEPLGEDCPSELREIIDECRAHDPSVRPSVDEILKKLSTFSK
Description: DEGRADATION ASSAY: Screening Compounds Procedure to Evaluate the Activity of Compounds in Degrading Endogenous MLKL in Human Cell
The human monocyte cell line (U937) was seeded on the day of the experiment in a 24-well plate at a cell density of 5*10^5 cells per well in a volume of 0.5 mL per well.
The compound was diluted in DMSO with a starting concentration of 10 mM and titrated stepwise with a dilution of 1:5. 0.5 μL of the compound dilution was added to the appropriate well to achieve a final concentration of 10; 2; 0.4; 0.08 and 0.016 μM. A DMSO only well was included as control.
The cells were incubated for 24 h in the presence of the compound at 37° C. and 10% CO2.
After the 24 h incubation period, the medium was removed and cells washed with 0.5 mL PBS. The cells were then lysed directly in 60 μL of 1×SDS gel loading buffer.
The cell lysate was heat-denatured at […] for 10 min. 10 μL of lysate per well were run on 18-well 4-15% Criterion TGX stain free gels (BIO-RAD). The proteins were then transferred onto nitrocellulose membrane with a wet transfer protocol in the Criterion Blotter (BIO-RAD).
Membranes were blocked with 5% skim milk in TBST. Primary antibody against MLKL (clone 3H1, MABC604 Merck) was used at 1:2000 dilution in TBST with 1% BSA and left shaking over night at 4° C. After washes with TBST, the membranes were incubated with goat anti-rat IgG HRP-conjugated antibody (Southern Biotech) in 1% skim milk TBST at 1:10000 dilution for 1 h at room temperature. After TBST washes the bands were imaged on the ChemiDoc MP Imaging Systm (BIO-RAD) with Immobilion Western Chemiluminescent HRP Substrate Forte (Millipore). The loading control GAPDH was probed for with rabbit anti-GAPDH (CST 14C10) at 1:2000 dilution in 1% BSA TBST over night at 4° C. TBST washes were followed by incubation with goat anti-rabbit IgG HRP-conjugated antibody (Southern Biotech) in 1% skim milk TBST at 1:10000 dilution for 1 h at room temperature followed by TBST washes. The signal was detected as described above.
The band intensity was measured in the ImageLab Software (BIO-RAD) and the MLKL values adjusted for loading with GAPDH. The percentage of degradation was calculated by normalizing the compound treated values to the DMSO only control.

Chain of MLKL (full length) (Q8NB16 whole entry): as above

SMILES	Kd (MLKL (full length))	IC50 [1]	IC50 (U937 cells)	DC50 (endogenous MLKL in U937)
CCS(=O)(=O)Nc1ccc(-c2n[nH]c(Nc3ccc(C(=O)OCCCC(=O)N[C@H](C(=O)N4C[C@H](O)C[C@H]4C(=O)NCc4ccc(-c5scnc5C)cc4)C(C)(C)C)cn3)c2C(N)=O)cc1O[C@@H](C)c1ccc(F)cc1 [Compound 1043, 3-{[(2S)-1-[(2S,4R)-4-hydroxy-2-({[4-(4-methyl-1,3-thiazol-5-yl)phenyl]methyl}carbamoyl)pyrrolidin-1-yl]-3,3-dimethyl-1-oxobutan-2-yl]carbamoyl}propyl 6-[(4-carbamoyl-3-{4-ethanesulfonamido-3-[(1S)-1-(4-fluorophenyl)ethoxy]phenyl}-1H-pyrazol-5-yl)amino]pyridine-3-carboxylate]	< 10 nM	< 1000 nM	> 10000 nM	< 1 µM
Cc1ncsc1-c1ccc(CNC(=O)[C@@H]2C[C@@H](O)CN2C(=O)[C@@H](NC(=O)CCCCOc2cc(Nc3[nH]nc(-c4ccc(NS(=O)(=O)CC(F)(F)F)cc4)c3C(N)=O)ccn2)C(C)(C)C)cc1 [Compound 1016, 5-{[2-(4-{[(2S)-1-[(2S,4R)-4-hydroxy-2-({[4-(4-methyl-1,3-thiazol-5-yl)phenyl]methyl}carbamoyl)pyrrolidin-1-yl]-3,3-dimethyl-1-oxobutan-2-yl]carbamoyl}butoxy)pyridin-4-yl]amino}-3-[4-(2,2,2-trifluoroethanesulfonamido)phenyl]-1H-pyrazole-4-carboxamide]	< 10 nM	1000 to 10000 nM	> 10000 nM	1 to 10 µM
Cc1ncsc1-c1ccc(CNC(=O)[C@@H]2C[C@@H](O)CN2C(=O)[C@@H](NC(=O)CCCCOc2ccc(Nc3[nH]nc(-c4ccc(NS(=O)(=O)C(F)F)c(OCc5ccc(F)cc5)c4)c3C(N)=O)nc2)C(C)(C)C)cc1 [Compound 1025, 3-[4-(difluoromethanesulfonamido)-3-[(4-fluorophenyl)methoxy]phenyl]-5-{[5-(4-{[(2S)-1-[(2S,4R)-4-hydroxy-2-({[4-(4-methyl-1,3-thiazol-5-yl)phenyl]methyl}carbamoyl)pyrrolidin-1-yl]-3,3-dimethyl-1-oxobutan-2-yl]carbamoyl}butoxy)pyridin-2-yl]amino}-1H-pyrazole-4-carboxamide]		< 1000 nM	> 10000 nM	< 1 µM
Cc1ncsc1-c1ccc(CNC(=O)[C@@H]2C[C@@H](O)CN2C(=O)[C@@H](NC(=O)CN2CCC(Oc3ccc(Nc4[nH]nc(-c5ccc(NS(=O)(=O)C(F)F)c(O[C@@H](C)c6ccc(F)cc6)c5)c4C(N)=O)nc3)CC2)C(C)(C)C)cc1 [Compound 1050, 3-[4-(difluoromethanesulfonamido)-3-[(1S)-1-(4-fluorophenyl)ethoxy]phenyl]-5-[(5-{[1-({[(2S)-1-[(2S,4R)-4-hydroxy-2-({[4-(4-methyl-1,3-thiazol-5-yl)phenyl]methyl}carbamoyl)pyrrolidin-1-yl]-3,3-dimethyl-1-oxobutan-2-yl]carbamoyl}methyl)piperidin-4-yl]oxy}pyridin-2-yl)amino]-1H-pyrazole-4-carboxamide]	10 to 1000 nM	1000 to 10000 nM	> 10000 nM	< 1 µM
Cc1ncsc1-c1ccc(CNC(=O)[C@@H]2C[C@@H](O)CN2C(=O)[C@@H](NC(=O)CCCCOc2ccc(Nc3[nH]nc(-c4ccc(NS(=O)(=O)C(F)F)cc4)c3C(N)=O)nc2)C(C)(C)C)cc1 [Compound 1021, 3-[4-(difluoromethanesulfonamido)phenyl]-5-{[5-(4-{[(2S)-1-[(2S,4R)-4-hydroxy-2-({[4-(4-methyl-1,3-thiazol-5-yl)phenyl]methyl}carbamoyl)pyrrolidin-1-yl]-3,3-dimethyl-1-oxobutan-2-yl]carbamoyl}butoxy)pyridin-2-yl]amino}-1H-pyrazole-4-carboxamide]	< 10 nM	< 1000 nM	> 10000 nM	1 to 10 µM
Cc1ncsc1-c1ccc(CNC(=O)[C@@H]2C[C@@H](O)CN2C(=O)[C@@H](NC(=O)CCCCOC(=O)c2ccc(Nc3[nH]nc(-c4ccc(NS(=O)(=O)C(F)F)c(O[C@@H](C)c5ccc(F)cc5)c4)c3C(N)=O)nc2)C(C)(C)C)cc1 [Compound 1051, 4-{[(2S)-1-[(2S,4R)-4-hydroxy-2-({[4-(4-methyl-1,3-thiazol-5-yl)phenyl]methyl}carbamoyl)pyrrolidin-1-yl]-3,3-dimethyl-1-oxobutan-2-yl]carbamoyl}butyl 6-({4-carbamoyl-3-[4-(difluoromethanesulfonamido)-3-[(1S)-1-(4-fluorophenyl)ethoxy]phenyl]-1H-pyrazol-5-yl}amino)pyridine-3-carboxylate]	10 to 1000 nM	1000 to 10000 nM	> 10000 nM	1 to 10 µM
CCS(=O)(=O)Nc1ccc(-c2n[nH]c(Nc3ccc(C(=O)NCCCCC(=O)N[C@@H](C(=O)N4C[C@@H](O)C[C@@H]4C(=O)NCc4ccc(-c5scnc5C)cc4)C(C)(C)C)cn3)c2C(N)=O)cc1OC(C)c1ccc(F)cc1 (stereo in doubt) [Compound 1029, 3-{4-ethanesulfonamido-3-[(1R)-1-(4-fluorophenyl)ethoxy]phenyl}-5-({5-[(4-{[(2R)-1-[(2R,4S)-4-hydroxy-2-({[4-(4-methyl-1,3-thiazol-5-yl)phenyl]methyl}carbamoyl)pyrrolidin-1-yl]-3,3-dimethyl-1-oxobutan-2-yl]carbamoyl}butyl)carbamoyl]pyridin-2-yl}amino)-1H-pyrazole-4-carboxamide]	< 10 nM	< 1000 nM	> 10000 nM	1 to 10 µM
Cc1ncsc1-c1ccc(CNC(=O)[C@@H]2C[C@@H](O)CN2C(=O)[C@@H](NC(=O)CCCCCCCn2ccc(Nc3[nH]nc(-c4ccc(NS(=O)(=O)C(F)F)c(O[C@@H](C)c5ccc(F)cc5)c4)c3C(N)=O)n2)C(C)(C)C)cc1 [Compound 1042, 3-[4-(difluoromethanesulfonamido)-3-[(1S)-1-(4-fluorophenyl)ethoxy]phenyl]-5-{[1-(7-{[(2S)-1-[(2S,4R)-4-hydroxy-2-({[4-(4-methyl-1,3-thiazol-5-yl)phenyl]methyl}carbamoyl)pyrrolidin-1-yl]-3,3-dimethyl-1-oxobutan-2-yl]carbamoyl}heptyl)-1H-pyrazol-3-yl]amino}-1H-pyrazole-4-carboxamide]	< 10 nM	< 1000 nM	1000 to 10000 nM	1 to 10 µM
Cc1ncsc1-c1ccc(CNC(=O)[C@@H]2C[C@@H](O)CN2C(=O)[C@@H](NC(=O)c2ccc(COc3ccc(Nc4[nH]nc(-c5ccc(NS(=O)(=O)C(F)F)c(O[C@@H](C)c6ccc(F)cc6)c5)c4C(N)=O)nc3)cc2)C(C)(C)C)cc1 [Compound 1030, 3-[4-(difluoromethanesulfonamido)-3-[(1S)-1-(4-fluorophenyl)ethoxy]phenyl]-5-({5-[(4-{[(2S)-1-[(2S,4R)-4-hydroxy-2-({[4-(4-methyl-1,3-thiazol-5-yl)phenyl]methyl}carbamoyl)pyrrolidin-1-yl]-3,3-dimethyl-1-oxobutan-2-yl]carbamoyl}phenyl)methoxy]pyridin-2-yl}amino)-1H-pyrazole-4-carboxamide]		< 1000 nM	> 10000 nM	< 1 µM
